Assay results taken from ChEMBL document CHEMBL1129628, “Effect of ring size or an additional heteroatom on the potency and selectivity of bicyclic benzylamine-type inhibitors of phenylethanolamine N-methyltransferase” (J Med Chem, 1996).

Tests used:
[1] = biological target: T1, Phenylethanolamine N-methyltransferase (Bos taurus, UniProt P10938); test: In vitro for inhibition of Phenylethanolamine N-Methyltransferase (PNMT)
T1 sequence (P10938 whole entry): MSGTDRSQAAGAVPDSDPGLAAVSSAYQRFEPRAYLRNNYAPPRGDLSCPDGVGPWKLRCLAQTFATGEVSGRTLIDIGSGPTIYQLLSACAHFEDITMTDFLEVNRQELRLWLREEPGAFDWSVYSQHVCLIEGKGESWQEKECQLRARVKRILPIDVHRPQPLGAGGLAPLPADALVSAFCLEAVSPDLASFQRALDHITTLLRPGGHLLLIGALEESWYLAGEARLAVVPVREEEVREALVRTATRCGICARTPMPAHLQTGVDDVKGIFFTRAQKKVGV

[2] = Selectivity ratio between Ki of alpha-2 adrenoceptor and Ki of PNMT
[3] = biological target: T2, Adrenergic receptor alpha-2 (Rattus norvegicus, UniProt P22086+P19328+P22909); test: In vitro for binding affinity against Alpha-2 adrenergic receptor by radioligand [3H]clonidine in rat
T2 sequence (P22086 whole entry): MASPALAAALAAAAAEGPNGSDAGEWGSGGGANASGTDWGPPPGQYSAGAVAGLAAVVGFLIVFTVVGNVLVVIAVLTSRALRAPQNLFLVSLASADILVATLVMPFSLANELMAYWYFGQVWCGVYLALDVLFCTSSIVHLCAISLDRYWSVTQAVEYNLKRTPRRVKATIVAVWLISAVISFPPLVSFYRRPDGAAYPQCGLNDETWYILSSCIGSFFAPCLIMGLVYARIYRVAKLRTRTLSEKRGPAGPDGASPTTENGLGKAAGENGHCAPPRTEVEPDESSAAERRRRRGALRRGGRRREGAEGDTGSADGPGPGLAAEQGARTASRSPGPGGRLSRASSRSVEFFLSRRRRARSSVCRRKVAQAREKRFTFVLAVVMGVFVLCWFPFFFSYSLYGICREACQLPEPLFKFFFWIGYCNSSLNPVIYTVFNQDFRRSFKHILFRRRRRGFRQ
T2 sequence (P19328 whole entry): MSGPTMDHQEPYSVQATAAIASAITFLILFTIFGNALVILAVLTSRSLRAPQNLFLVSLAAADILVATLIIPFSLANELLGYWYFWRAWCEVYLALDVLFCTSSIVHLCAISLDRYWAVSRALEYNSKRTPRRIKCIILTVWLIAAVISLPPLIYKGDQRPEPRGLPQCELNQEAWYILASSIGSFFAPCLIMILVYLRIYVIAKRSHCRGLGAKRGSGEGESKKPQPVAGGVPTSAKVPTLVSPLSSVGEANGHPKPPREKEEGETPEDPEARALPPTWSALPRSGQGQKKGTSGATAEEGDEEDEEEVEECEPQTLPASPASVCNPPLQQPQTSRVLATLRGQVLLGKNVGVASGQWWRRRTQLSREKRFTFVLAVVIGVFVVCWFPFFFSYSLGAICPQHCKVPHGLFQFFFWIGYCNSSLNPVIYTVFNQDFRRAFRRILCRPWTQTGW
T2 sequence (P22909 whole entry): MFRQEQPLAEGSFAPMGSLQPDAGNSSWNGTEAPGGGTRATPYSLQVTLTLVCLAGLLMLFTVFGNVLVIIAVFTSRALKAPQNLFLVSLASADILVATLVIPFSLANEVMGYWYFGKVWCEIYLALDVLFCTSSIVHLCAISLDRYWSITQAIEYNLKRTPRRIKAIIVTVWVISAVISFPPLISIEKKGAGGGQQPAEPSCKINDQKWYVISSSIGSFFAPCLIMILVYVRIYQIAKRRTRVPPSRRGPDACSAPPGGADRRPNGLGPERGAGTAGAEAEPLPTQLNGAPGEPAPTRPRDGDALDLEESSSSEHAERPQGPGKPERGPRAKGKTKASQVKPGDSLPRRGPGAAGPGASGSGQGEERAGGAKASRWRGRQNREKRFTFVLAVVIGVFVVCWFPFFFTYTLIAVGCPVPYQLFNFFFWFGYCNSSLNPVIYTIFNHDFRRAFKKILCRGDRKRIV

| SMILES | Ki [1] | Ratio [2] | Ki [3] |
| --- | --- | --- | --- |
| C[C@H]1Cc2ccccc2CN1 | 1.01 µM | 0.51 | 0.52 µM |
| c1ccc2c(c1)CCCCNC2 | 21.3 µM | 0.73 | 16 µM |
| c1ccc2c(c1)CNCCO2 | 21.2 µM | 0.19 | 4.1 µM |
| C[C@@H]1Cc2ccccc2CN1 | 38.3 µM | 0.16 | 6.2 µM |
| c1ccc2c(c1)CNCCN2 | 28 µM | 0.093 | 2.6 µM |
| CC1Cc2ccccc2CN1 (racemic) | 2.13 µM | 0.39 | 0.84 µM |
| c1ccc2c(c1)CCNC2 [1,2,3,4-TETRAHYDROISOQUINOLINE] | 9.67 µM | […] | […] |

Continued, values first:

| Ki [1] | Ratio [2] | Ki [3] | SMILES |
| --- | --- | --- | --- |
| 4.1 µM | 1.1 | 4.6 µM | c1ccc2c(c1)CNCCS2 |
| 231 µM | 0.0035 | 0.82 µM | c1ccc2c(c1)CNC2 |
| 3.34 µM | 3.2 | 11 µM | c1ccc2c(c1)CCCNC2 |
| 179 µM | 0.11 | 20 µM | NCc1ccccc1 [BENZYLAMINE] |
